# Test results as given in the supplement of paper PMC10307832.
# What was measured:
# Assay in all cases: relative viability (nuclei count vs DMSO), 5 days (fraction); higher = more cells survive
# NCI-H1703 = system: NCI-H1703
# In short: (§1)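 Relative viability is defined as nuclei in treated wells over nuclei in vehicle wells. Duplicate plates were run and medians reported. Lung cancer cell lines in 1536-well plates were dosed by pin tool one day after seeding, with one drug or with a fixed anchor-drug dose plus five library-drug doses (not always all listed) in √10 steps, and nuclei were counted after 5 days.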
# NCI-H1299 = system: NCI-H1299
# In short: as §1
# A549 = system: A549
# In short: as §1
# NCI-H1648 = system: NCI-H1648
# In short: as §1
# NCI-H1563 = system: NCI-H1563
# In short: as §1
# NCI-H1623 = system: NCI-H1623
# In short: as §1
Compound,relative viability (NCI-H1703; first compound 0.253 µM),relative viability (NCI-H1703; first compound 0.8 µM),relative viability (NCI-H1703; first compound 2.53 µM),relative viability (NCI-H1703; first compound 8 µM),relative viability (NCI-H1299; first compound 0.253 µM),relative viability (NCI-H1299; first compound 0.8 µM),relative viability (NCI-H1299; first compound 2.53 µM),relative viability (NCI-H1299; first compound 8 µM),relative viability (A549; first compound 0.253 µM),relative viability (A549; first compound 0.8 µM),relative viability (A549; first compound 2.53 µM),relative viability (A549; first compound 8 µM),relative viability (NCI-H1648; first compound 0.253 µM),relative viability (NCI-H1648; first compound 2.53 µM),relative viability (NCI-H1648; first compound 8 µM),relative viability (NCI-H1563; first compound 0.253 µM),relative viability (NCI-H1563; first compound 0.8 µM),relative viability (NCI-H1563; first compound 2.53 µM),relative viability (NCI-H1563; first compound 8 µM),relative viability (NCI-H1623; first compound 0.253 µM),other results
Nc1cccc2c1CN(C1CCC(=O)NC1=O)C2=O (configuration not stated) [Lenalidomide] + CC1(C)CCC(c2ccc(Cl)cc2)=C(CN2CCN(c3ccc(C(=O)NS(=O)(=O)c4ccc(N[C@H](CCN5CCOCC5)CSc5ccccc5)c(S(=O)(=O)C(F)(F)F)c4)cc3)CC2)C1 [Navitoclax] (partner 0.5 µM),0.994,1.28,1.23,1.23,1.05,1.04,1.07,1.05,1.21,1.17,1.21,1.24,,,,,,,,,
Nc1cccc2c1CN(C1CCC(=O)NC1=O)C2=O (configuration not stated) [Lenalidomide] + CC(=O)Nc1cccc(-n2c(=O)n(C3CC3)c(=O)c3c(Nc4ccc(I)cc4F)n(C)c(=O)c(C)c32)c1 [Trametinib] (partner 0.02 µM),,,,,,,,,,,,,0.556,0.597,0.476,,,,,,
Nc1cccc2c1CN(C1CCC(=O)NC1=O)C2=O (configuration not stated) [Lenalidomide] + CC(=O)c1c(C)c2cnc(Nc3ccc(N4CCNCC4)cn3)nc2n(C2CCCC2)c1=O [Palbociclib] (partner 0.5 µM),,,,,,,,,,,,,0.304,0.282,0.253,,,,,,
Nc1cccc2c1CN(C1CCC(=O)NC1=O)C2=O (configuration not stated) [Lenalidomide] + CCNC(=O)c1noc(-c2cc(C(C)C)c(O)cc2O)c1-c1ccc(CN2CCOCC2)cc1 [Luminespib] (partner 0.01 µM),,,,,,,,,,,,,,,,0.535,0.526,0.468,0.581,0.413,relative viability (NCI-H1623; first compound 0.8 µM): 0.474; relative viability (NCI-H1623; first compound 2.53 µM): 0.557; relative viability (NCI-H1623; first compound 8 µM): 0.399
Nc1cccc2c1CN(C1CCC(=O)NC1=O)C2=O (configuration not stated) [Lenalidomide] + COc1cc2c(Oc3ccc(NC(=O)C4(C(=O)Nc5ccc(F)cc5)CC4)cc3F)ccnc2cc1OCCCN1CCOCC1 [Foretinib] (partner 0.25 µM),0.328,0.348,0.403,0.426,1.1,1.08,1.09,1.13,0.925,0.954,1.04,0.897,,,,0.894,0.933,0.902,0.77,0.858,relative viability (NCI-H1623; first compound 0.8 µM): 0.784; relative viability (NCI-H1623; first compound 2.53 µM): 0.862; relative viability (NCI-H1623; first compound 8 µM): 0.71
Nc1cccc2c1CN(C1CCC(=O)NC1=O)C2=O (configuration not stated) [Lenalidomide] + COc1cccc2cc(-c3nc([C@H]4CC[C@H](C(=O)O)CC4)n4ncnc(N)c34)[nH]c12 [OSI-027] (partner 0.5 µM),,,,,,,,,,,,,0.272,0.253,0.227,0.751,0.8,0.804,0.72,0.433,relative viability (NCI-H1648; first compound 0.8 µM): 0.22; relative viability (NCI-H1623; first compound 0.8 µM): 0.418; relative viability (NCI-H1623; first compound 2.53 µM): 0.375; relative viability (NCI-H1623; first compound 8 µM): 0.392
Nc1cccc2c1CN(C1CCC(=O)NC1=O)C2=O (configuration not stated) [Lenalidomide] + CS(=O)(=O)N1CCN(Cc2cc3nc(-c4cccc5[nH]ncc45)nc(N4CCOCC4)c3s2)CC1 [Pictilisib] (partner 1 µM),0.245,0.27,0.287,0.267,0.733,0.923,0.931,0.963,0.491,0.448,0.553,0.52,,,,0.713,0.667,0.685,0.638,,
Nc1cccc2c1CN(C1CCC(=O)NC1=O)C2=O (configuration not stated) [Lenalidomide] + C[C@@H](Oc1cc(-c2cnn(C3CCNCC3)c2)cnc1N)c1c(Cl)ccc(F)c1Cl [Crizotinib] (partner 1 µM),0.467,0.707,0.671,0.89,0.978,1,1.01,0.977,0.777,0.835,0.745,0.902,,,,0.882,0.782,0.811,0.88,,
Nc1cccc2c1CN(C1CCC(=O)NC1=O)C2=O (configuration not stated) [Lenalidomide] + C[C@]1(O)C[C@@H](c2nc(-c3ccc4ccc(-c5ccccc5)nc4c3)c3c(N)nccn32)C1 [Linsitinib] (partner 1 µM),0.566,1.01,0.956,0.431,0.954,0.968,1.06,0.852,0.539,0.573,0.56,0.368,,,,1.17,1.16,1.08,1.01,,
Nc1cccc2c1CN(C1CCC(=O)NC1=O)C2=O (configuration not stated) [Lenalidomide] + Cc1cc(Nc2cc(N3CCN(C)CC3)nc(Sc3ccc(NC(=O)C4CC4)cc3)n2)n[nH]1 [Tozasertib] (partner 0.1 µM),,,,,,,,,,,,,0.578,0.509,0.599,,,,,0.427,relative viability (NCI-H1648; first compound 0.8 µM): 0.317; relative viability (NCI-H1623; first compound 0.8 µM): 0.36; relative viability (NCI-H1623; first compound 2.53 µM): 0.43; relative viability (NCI-H1623; first compound 8 µM): 0.496
Nc1cccc2c1CN(C1CCC(=O)NC1=O)C2=O (configuration not stated) [Lenalidomide] + Cc1nc(Nc2ncc(C(=O)Nc3c(C)cccc3Cl)s2)cc(N2CCN(CCO)CC2)n1 [Dasatinib] (partner 0.075 µM),,,,,,,,,,,,,,,,0.477,0.43,0.499,0.464,0.51,relative viability (NCI-H1623; first compound 0.8 µM): 0.466; relative viability (NCI-H1623; first compound 2.53 µM): 0.523; relative viability (NCI-H1623; first compound 8 µM): 0.497
Nc1cccc2c1CN(C1CCC(=O)NC1=O)C2=O (configuration not stated) [Lenalidomide] + N=C(N)NC(=N)NCCc1ccccc1 [Phenformin] (partner 250 µM),,,,,,,,,0.104,0.158,0.168,0.208,,,,0.667,0.774,0.697,0.613,0.572,relative viability (NCI-H1623; first compound 0.8 µM): 0.576; relative viability (NCI-H1623; first compound 2.53 µM): 0.601; relative viability (NCI-H1623; first compound 8 µM): 0.544
Nc1cccc2c1CN(C1CCC(=O)NC1=O)C2=O (configuration not stated) [Lenalidomide] + NC(=O)Nc1cc(-c2cccc(F)c2)sc1C(=O)N[C@H]1CCCNC1 [AZD7762] (partner 0.2 µM),0.123,0.117,0.131,0.135,,,,,,,,,0.591,0.626,0.689,,,,,,
Nc1cccc2c1CN(C1CCC(=O)NC1=O)C2=O (configuration not stated) [Lenalidomide] + Nc1nc2[nH]cc(CCc3ccc(C(=O)N[C@@H](CCC(=O)O)C(=O)O)cc3)c2c(=O)[nH]1 [Pemetrexed] (partner 0.2 µM),,,,,,,,,,,,,0.765,0.711,0.747,1,0.361,0.952,0.637,,
Nc1cccc2c1CN(C1CCC(=O)NC1=O)C2=O (configuration not stated) [Lenalidomide] + Nc1ncn([C@H]2C[C@H](O)[C@@H](CO)O2)c(=O)n1 [Decitabine] (partner 2 µM),,,,,,,,,0.211,0.22,0.268,0.269,0.562,0.557,0.411,,,,,,
Nc1cccc2c1CN(C1CCC(=O)NC1=O)C2=O (configuration not stated) [Lenalidomide] + O=C(CCCCCCC(=O)Nc1ccccc1)NO [Vorinostat] (partner 1 µM),,,,,,,,,,,,,0.513,0.885,0.392,,,,,,
Nc1cccc2c1CN(C1CCC(=O)NC1=O)C2=O (configuration not stated) [Lenalidomide] + O=C(c1cc(Cc2n[nH]c(=O)c3ccccc23)ccc1F)N1CCN(C(=O)C2CC2)CC1 [Olaparib] (partner 8 µM),0.398,0.521,0.478,0.433,0.938,1.03,1,1.07,0.401,0.101,0.22,0.228,0.883,1.12,0.922,,,,,,
Cc1cn(-c2cc(NC(=O)c3ccc(C)c(Nc4nccc(-c5cccnc5)n4)c3)cc(C(F)(F)F)c2)cn1 [Nilotinib] + CS(=O)(=O)CCNCc1ccc(-c2ccc3ncnc(Nc4ccc(OCc5cccc(F)c5)c(Cl)c4)c3c2)o1 [Lapatinib] (partner 2 µM),,,,,,,,,,,,,,,,,,,,,relative viability (NCI-H1703; first compound 0.003162 µM): 0.738; relative viability (NCI-H1703; first compound 0.01 µM): 0.567; relative viability (NCI-H1703; first compound 0.03162 µM): 0.208; relative viability (NCI-H1703; first compound 0.1 µM): 0.227; relative viability (NCI-H1299; first compound 0.001 µM): 0.967; relative viability (NCI-H1299; first compound 0.003162 µM): 0.974; relative viability (NCI-H1299; first compound 0.01 µM): 0.992; relative viability (NCI-H1299; first compound 0.03162 µM): 1.05; relative viability (NCI-H1299; first compound 0.1 µM): 0.98; relative viability (A549; first compound 0.001 µM): 1.01; relative viability (A549; first compound 0.003162 µM): 1.07; relative viability (A549; first compound 0.01 µM): 1.09; relative viability (A549; first compound 0.03162 µM): 0.881; relative viability (A549; first compound 0.1 µM): 0.672; relative viability (NCI-H1563; first compound 0.001 µM): 0.961; relative viability (NCI-H1563; first compound 0.003162 µM): 0.916; relative viability (NCI-H1563; first compound 0.01 µM): 0.874; relative viability (NCI-H1563; first compound 0.03162 µM): 0.873; relative viability (NCI-H1563; first compound 0.1 µM): 0.596
Cc1cn(-c2cc(NC(=O)c3ccc(C)c(Nc4nccc(-c5cccnc5)n4)c3)cc(C(F)(F)F)c2)cn1 [Nilotinib] + Nc1nc2[nH]cc(CCc3ccc(C(=O)N[C@@H](CCC(=O)O)C(=O)O)cc3)c2c(=O)[nH]1 [Pemetrexed] (partner 0.2 µM),,,,,,,,,,,,,,,,,,,,,relative viability (NCI-H1648; first compound 0.001 µM): 0.792; relative viability (NCI-H1648; first compound 0.003162 µM): 0.685; relative viability (NCI-H1648; first compound 0.01 µM): 0.726; relative viability (NCI-H1648; first compound 0.03162 µM): 0.506; relative viability (NCI-H1648; first compound 0.1 µM): 0.685; relative viability (NCI-H1563; first compound 0.001 µM): 0.746; relative viability (NCI-H1563; first compound 0.003162 µM): 0.712; relative viability (NCI-H1563; first compound 0.01 µM): 0.796; relative viability (NCI-H1563; first compound 0.03162 µM): 0.667; relative viability (NCI-H1563; first compound 0.1 µM): 0.552
